Results taken from PubChem BioAssay AID330 (DTP/NCI, 2004).
Where “and” joins values, the source holds several entries; their conditions need not be identical. Equal entries are not always repeated. Inconclusive results and toxic doses are left out. Rule for the calls: active = survival T/C of 150% or more; inactive = T/C below 125% in these data.

Tested on: P388 leukemia ip, CD2F1 mice, survival T/C
Test: NCI In Vivo Anticancer Drug Screen. Data for tumor model P388 Leukemia (intraperitoneal) in CD2F1 (CDF1) mice
Conditions: endpoint: median survival time, higher = longer survival
Method in brief: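 Mice carrying the transplanted tumor received test compound or vehicle. Survival was recorded in each group, and the value is the treated-group measurement divided by that of the vehicle-treated control group.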

[1] = dose: 50.0 mg/kg/injection, schedule: Q01DX009 (ip), vehicle: saline with Tween-80
[2] = dose: 100.0 mg/kg/injection, schedule: Q01DX009 (ip), vehicle: saline with Tween-80
[3] = dose: 200.0 mg/kg/injection, schedule: Q01DX009 (ip), vehicle: saline with Tween-80
[4] = dose: 50.0 mg/kg/injection, schedule: Q01DX005 (ip), vehicle: Klucel (hydroxypropylcellulose) (HPC)
[5] = dose: 100.0 mg/kg/injection, schedule: Q01DX005 (ip), vehicle: Klucel (hydroxypropylcellulose) (HPC)
[6] = dose: 200.0 mg/kg/injection, schedule: Q01DX005 (ip), vehicle: Klucel (hydroxypropylcellulose) (HPC)
[7] = dose: 60.0 mg/kg/injection, schedule: Q01DX005 (ip), vehicle: saline with Tween-80
[8] = dose: 120.0 mg/kg/injection, schedule: Q01DX005 (ip), vehicle: saline with Tween-80
[9] = dose: 240.0 mg/kg/injection, schedule: Q01DX005 (ip), vehicle: saline with Tween-80
[10] = dose: 50.0 mg/kg/injection, schedule: Q01DX005 (ip), vehicle: saline with Tween-80
[11] = dose: 100.0 mg/kg/injection, schedule: Q01DX005 (ip), vehicle: saline with Tween-80
[12] = dose: 60.0 mg/kg/injection, schedule: Q01DX005 (ip), vehicle: Klucel (hydroxypropylcellulose) (HPC)
[13] = dose: 120.0 mg/kg/injection, schedule: Q01DX005 (ip), vehicle: Klucel (hydroxypropylcellulose) (HPC)
[14] = dose: 240.0 mg/kg/injection, schedule: Q01DX005 (ip), vehicle: Klucel (hydroxypropylcellulose) (HPC)
[15] = dose: 6.25 mg/kg/injection, schedule: Q01DX009 (ip), vehicle: saline with Tween-80
[16] = dose: 12.5 mg/kg/injection, schedule: Q01DX009 (ip), vehicle: saline with Tween-80
[17] = dose: 200.0 mg/kg/injection, schedule: Q01DX005 (ip), vehicle: saline with Tween-80

Measured: T/C

COc1ccccc1NC(CCN1CCCCC1)=NC(C)(C)C
inactive: [1] 111 % of control | [2] 106 % of control | [3] 104 % of control

CCC1(C(C)C)NC(=O)NC1=O (stereo not drawn)
inactive: [4] 106 % of control | [5] 104 % of control | [6] 106 % of control

CCCCCCCCCCCCCCCCCCCC
inactive: dose: 6.25 mg/kg/injection, schedule: Q01DX009 (ip), vehicle: other 112 % of control | dose: 12.5 mg/kg/injection, schedule: Q01DX009 (ip), vehicle: other 90 % of control | dose: 25.0 mg/kg/injection, schedule: Q01DX009 (ip), vehicle: other 111 % of control | dose: 50.0 mg/kg/injection, schedule: Q04DX003 (ip), vehicle: other 91 % of control | dose: 100.0 mg/kg/injection, schedule: Q04DX003 (ip), vehicle: other 91 % of control

Cn1cc(Cc2c[nH]c3ccccc3c2=O)c2ccccc21
inactive: [7] 107 % of control | [8] 99 % of control | [9] 97 % of control

CC(=O)OCCCCCCCCCCCCCCCCCC1=C(C)C(=O)OC1=O
inactive: dose: 25.0 mg/kg/injection, schedule: Q01DX005 (ip), vehicle: Klucel (hydroxypropylcellulose) (HPC) 96 % of control | [4] 97 % of control | [5] 103 % of control | [6] 99 % of control | dose: 400.0 mg/kg/injection, schedule: Q01DX005 (ip), vehicle: Klucel (hydroxypropylcellulose) (HPC) 92 % of control

O=C(N/N=C\c1c(O)ccc2ccccc12)c1ccncc1
inactive: [10] 104 % of control | [11] 105 % of control

CCCCCCOCC(=O)O
inactive: [1] 102 % of control | [2] 91 % of control

CC1(C)C(C#N)C(=O)N(Cc2ccccc2)C(=O)C1C#N (stereo not drawn)
inactive: [1] 100 % of control | [2] 104 % of control | [3] 113 % of control

CC(=O)OC1CC(OC(C)=O)C(OC(C)=O)C(CS[As](C)C)O1 (stereo not drawn)
inactive: [1] 99 % of control | [2] 99 % of control | [3] 96 % of control

COc1ccc(C2OC(=O)C=C(C)O2)cc1 (stereo not drawn)
inactive: [12] 104 % of control | [13] 98 % of control | [14] 117 % of control

COC(=O)C1(C)CCCC2(C)c3cc(OC)ccc3C(=O)C(Br)C12 (stereo not drawn)
inactive: [1] 103 % of control | [2] 100 % of control | [3] 112 % of control

O=c1cc(CC2(O)CCCCC2)c2ccccc2[nH]1
inactive: [12] 95 % of control | [13] 102 % of control | [14] 95 % of control

O=[N+]([O-])c1ccc(S(=O)(=O)c2ccc(Nc3ccnc4cc(Cl)ccc34)cc2)cc1
inactive: [4] 98 % of control | [5] 91 % of control | [6] 90 % of control

COc1ccc(/C=C2/SC(=S)N(Cc3ccco3)C2=O)cc1
inactive: [15] 100 % of control | [16] 91 % of control | [3] 86 % of control

COc1ccc(-c2cc(-c3ccccc3)[nH]c(=O)c2C#N)cc1
inactive: dose: 12.5 mg/kg/injection, schedule: Q01DX009 (ip), vehicle: acid diluted with saline 101 % of control | dose: 25.0 mg/kg/injection, schedule: Q01DX009 (ip), vehicle: acid diluted with saline 99 % of control | dose: 50.0 mg/kg/injection, schedule: Q01DX009 (ip), vehicle: acid diluted with saline 101 % of control

O=C1C=C(N2C3C4CCC(C4)C32)C(=O)C=C1c1ccccc1 (stereo not drawn)
inactive: dose: 100.0 mg/kg/injection, schedule: Q01DX001 (ip), vehicle: other 102 % of control | dose: 200.0 mg/kg/injection, schedule: Q01DX001 (ip), vehicle: other 109 % of control | dose: 400.0 mg/kg/injection, schedule: Q01DX001 (ip), vehicle: other 111 % of control

Cn1c(=O)c2[nH]c(C3CCCC3)nc2n(C)c1=O
inactive: dose: 3.13 mg/kg/injection, schedule: Q01DX009 (ip), vehicle: saline with Tween-80 94 % of control | [15] 103 % of control | [16] 103 % of control | dose: 25.0 mg/kg/injection, schedule: Q01DX009 (ip), vehicle: saline with Tween-80 92 % of control

[NH-]CC(=O)O.[NH-]CC(=O)O.[Pt+2]
inactive: dose: 3.13 mg/kg/injection, schedule: Q01DX009 (ip), vehicle: water 97 % of control | dose: 6.25 mg/kg/injection, schedule: Q01DX009 (ip), vehicle: distilled water + Tween-80 119 % of control | dose: 6.25 mg/kg/injection, schedule: Q01DX009 (ip), vehicle: water 90 % of control and 112 % of control | dose: 12.5 mg/kg/injection, schedule: Q01DX009 (ip), vehicle: distilled water + Tween-80 111 % of control | dose: 12.5 mg/kg/injection, schedule: Q01DX009 (ip), vehicle: water 106 % of control and 110 % of control | dose: 25.0 mg/kg/injection, schedule: Q01DX009 (ip), vehicle: water 100 % of control and 112 % of control | dose: 50.0 mg/kg/injection, schedule: Q01DX009 (ip), vehicle: distilled water + Tween-80 119 % of control | dose: 50.0 mg/kg/injection, schedule: Q01DX009 (ip), vehicle: water 97 % of control | dose: 100.0 mg/kg/injection, schedule: Q01DX009 (ip), vehicle: distilled water + Tween-80 115 % of control | dose: 100.0 mg/kg/injection, schedule: Q01DX009 (ip), vehicle: water 97 % of control | dose: 200.0 mg/kg/injection, schedule: Q01DX009 (ip), vehicle: distilled water + Tween-80 98 % of control

CC(/C=N/NC(=O)C[n+]1ccccc1)=N/NC(=O)C[n+]1ccccc1
inactive: dose: 3.12 mg/kg/injection, schedule: Q01DX005 (ip), vehicle: saline 96 % of control and 98 % of control | dose: 6.25 mg/kg/injection, schedule: Q01DX005 (ip), vehicle: saline 97 % of control and 98 % of control | dose: 12.5 mg/kg/injection, schedule: Q01DX005 (ip), vehicle: saline 99 % of control and 97 % of control | dose: 25.0 mg/kg/injection, schedule: Q01DX005 (ip), vehicle: saline 99 % of control and 101 % of control | [10] 95 % of control

CCOC(=O)c1ccc(N2C(=O)C3C4C=CC(O4)C3C2=O)cc1 (stereo not drawn)
inactive: dose: 100.0 mg/kg/injection, schedule: Q04DX003 (ip), vehicle: Klucel (hydroxypropylcellulose) (HPC) 112 % of control | dose: 200.0 mg/kg/injection, schedule: Q04DX003 (ip), vehicle: Klucel (hydroxypropylcellulose) (HPC) 105 % of control | dose: 400.0 mg/kg/injection, schedule: Q04DX003 (ip), vehicle: Klucel (hydroxypropylcellulose) (HPC) 111 % of control

O=C1NC(O)c2cc(F)ccc2O1 (stereo not drawn)
inactive: dose: 25.0 mg/kg/injection, schedule: Q01DX005 (ip), vehicle: saline with Tween-80 104 % of control | [10] 105 % of control and 110 % of control | [11] 111 % of control and 115 % of control | [17] 111 % of control

O=C(CCl)N1CCN(c2ccccc2)CC1
inactive: [7] 97 % of control | [8] 100 % of control | [9] 97 % of control

CCCCCCCCCCCCSC1COC2C(SCCCCCCCCCCCC)COC12 (stereo not drawn)
inactive: [10] 100 % of control | [11] 96 % of control | [17] 99 % of control

CN(C)C1CS(=O)(=O)OC2=C1COCC2 (stereo not drawn)
inactive: [7] 101 % of control | [8] 105 % of control

CN(C)c1ccc(/C=C/c2ccnc3ccc4ccccc4c23)cc1
inactive: [1] 98 % of control | [2] 100 % of control | [3] 110 % of control
